Patent publication US9688645B2, “Macrocyclic urea and sulfamide derivatives as inhibitors of TAFIa” (SANOFI, priority 2008, dated 2017)
Where two headings read alike, the source gives them in different places.

How the values were obtained:
TAFIa = TAFIa (Homo sapiens (Human), UniProt Q96IY4); assay: TAFIa inhibition, Actichrome plasma TAFI Activity Kit (American Diagnostica); type: biochemical; settings: chromogenic read-out at 420 nm, 15 min preincubation at room temperature, pH 7.4, duplicate determination
Protocol: The prepared substances were tested for TAFIa inhibition using the Actichrome plasma TAFI Activity Kit from American Diagnostica (Pr. No. 874). This entailed adding 28 μl of assay buffer (20 mM Hepes, 150 mM NaCl, pH 7.4) and 10 μl of TAFIa (American Diagnostica Pr. No. 874TAFIA; 2.5 μg/ml) to 2 μl of 2.5 mM DMSO solution of the substance and incubating in a 96 half-well microtiter plate at room temperature for 15 minutes. The enzyme reaction was started by adding 10 μl of TAFIa developer (prediluted 1:2 with assay buffer). The time course of the reaction was followed at 420 nm in a microtiter plate reader (SpectraMax plus 384; Molecular Devices) for 15 minutes.
The IC50 values were calculated from the averaged values (duplicate determination) of serial dilutions of the substance with the aid of the Softmax Pro software (version 4.8; Molecular Devices).

[1] = rcm bond, dichloromethane

TAFIa, sequence (Q96IY4 115-423): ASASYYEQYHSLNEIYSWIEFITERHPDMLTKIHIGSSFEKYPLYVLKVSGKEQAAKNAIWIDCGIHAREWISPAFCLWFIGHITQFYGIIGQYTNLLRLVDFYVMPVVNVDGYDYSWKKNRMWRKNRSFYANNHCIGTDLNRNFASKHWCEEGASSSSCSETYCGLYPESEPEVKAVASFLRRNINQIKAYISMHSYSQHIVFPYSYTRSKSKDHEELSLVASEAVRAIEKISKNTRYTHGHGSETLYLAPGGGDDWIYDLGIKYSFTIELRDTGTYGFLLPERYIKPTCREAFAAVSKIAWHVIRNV

| SMILES | IC50 (TAFIa) | other results |
| --- | --- | --- |
| CC(C)[C@H]1COCCCCCC=CCOc2ccc(cc2)C[C@@H](NC(=O)OCC2c3ccccc3-c3ccccc32)C(=O)N1 | – | ring closure, yield of all isomers ([1]; from C=CCCCCCOC[C@@H](NC(=O)[C@@H](Cc1ccc(OCC=C)cc1)NC(=O)OCC1c2ccccc2-c2ccccc21)C(C)C, dichloro(o-isopropoxyphenylmethylene)(tricyclohexylphosphine)ruthenium (Hoveyda-Grubbs catalyst), 3.5 mM, 40.0 °C, 24.0 h): 90.4% |
| CC1(C)COCCCCOc2ccc(cc2)C[C@@H](NC(=O)N[C@@H](CCCCN)C(=O)O)C(=O)N1 [Example 1-3, (S)-6-Amino-2-[3-((R)-9,9-dimethyl-11-oxo-2,7-dioxa-10-azabicyclo[12.2.2]octadeca-1(17),14(18),15-trien-12-yl)ureido]hexanoic acid] | 269 nM | – |
| NCCCC[C@H](NC(=O)N[C@@H]1Cc2ccc(cc2)OCCCCOCCNC1=O)C(=O)O [Example 1-2, (S)-6-Amino-2-[3-((R)-11-oxo-2,7-dioxa-10-azabicyclo[12.2.2]octadeca-1(17),14(18),15-trien12-yl)ureido]hexanoic acid] | 9040 nM | – |
| CC(C)[C@H]1COCCCCCCCCOc2ccc(cc2)C[C@@H](NC(=O)N[C@@H](CCCCN)C(=O)O)C(=O)N1 [Example 2-1, (S)-6-Amino-2-[3-((13S,16R)-13-isopropyl-15-oxo-2,11-dioxa-14-azabicyclo[16.2.2]docosa-1(21), 18(22), 19-trien-16-yl)ureido]hexanoic acid] | 8.8 nM | – |
| CC(C)[C@H]1COC/C=C/COc2ccc(cc2)C[C@@H](NC(=O)N[C@@H](CCCCN)C(=O)O)C(=O)N1 [Example 3-1, (S)-6-Amino-2-[3-((E)-(9S,12R)-9-isopropyl-11-oxo-2,7-dioxa-10-azabicyclo[12.2.2]octadeca-1(17),4,14(18), 15-tetraen-12-yl)ureido]hexanoic acid] | 7.7 nM | – |
| C[C@H]1COCCCCOc2ccc(cc2)C[C@@H](NC(=O)N[C@@H](CCCCN)C(=O)O)C(=O)N1 [Example 1-8, (S)-6-Amino-2-[3-((9S,12R)-9-methyl-11-oxo-2,7-dioxa-10-azabicyclo[12.2.2]octadeca-1(17),14(18),15-trien-12-yl)ureido]hexanoic acid] | 29 nM | – |
| NCCCC[C@H](NC(=O)N[C@@H]1Cc2ccc(cc2)OCCCCOC[C@H](c2ccccc2)NC1=O)C(=O)O [Example 1-4, (S)-6-Amino-2-[3-((9S,12R)-11-oxo-9-phenyl-2,7-dioxa-10-azabicyclo[12.2.2]octadeca-1(17),14(18),15-trien-12-yl)ureido]hexanoic acid] | 71 nM | – |
| CC(C)(C)[C@H]1COCCCCOc2ccc(cc2)C[C@@H](NC(=O)N[C@@H](CCCCN)C(=O)O)C(=O)N1 [Example 1-9, (S)-6-Amino-2-[3-((9S,12R)-9-tert-butyl-11-oxo-2,7-dioxa-10-azabicyclo[12.2.2]octadeca-1(17),14(18),15-trien-12-yl)ureido]hexanoic acid] | 19 nM | – |
| NCCCC[C@H](NC(=O)N[C@@H]1Cc2ccc(cc2)OCCCCOC[C@H](Cc2ccccc2)NC1=O)C(=O)O [Example 1-5, (S)-6-Amino-2-[3-((9S,12R)-9-benzyl-11-oxo-2,7-dioxa-10-azabicyclo[12.2.2]octadeca-1(17),14(18),15-trien-12-yl)ureido]hexanoic acid] | 105 nM | – |
| CC(C)[C@H]1COCC=CCOc2ccc(cc2)C[C@@H](NC(=O)OCC2c3ccccc3-c3ccccc32)C(=O)N1 | – | ring closure, yield of all isomers ([1]; from C=CCOC[C@@H](NC(=O)[C@@H](Cc1ccc(OCC=C)cc1)NC(=O)OCC1c2ccccc2-c2ccccc21)C(C)C, dichloro(o-isopropoxyphenylmethylene)(tricyclohexylphosphine)ruthenium (Hoveyda-Grubbs catalyst), 3.61 mM, 40.0 °C, 24.0 h): 86.6% |
| CC(C)[C@H]1COCC=CCn2cnc(c2)C[C@@H](NC(=O)OCc2ccccc2)C(=O)N1 | – | ring closure, yield of all isomers ([1]; from C=CCOC[C@@H](NC(=O)[C@@H](Cc1cn(CC=C)cn1)NC(=O)OCc1ccccc1)C(C)C, benzylidene[1,3-bis(2,4,6-trimethylphenyl)-2-imidazolidinylidene]dichloro(tricyclohexylphosphine)ruthenium (Grubbs II catalyst), 4.38 mM, 25.0 °C): 73.3% |
| CC(C)[C@H]1COCCCCOc2ccc(cc2)C[C@@H](NC(=O)N[C@@H](CCCCN)C(=O)O)C(=O)N1 [Example 1-1, (S)-6-Amino-2-[3-((9S,12R)-9-isopropyl-11-oxo-2,7-dioxa-10-azabicyclo[12.2.2]octadeca-1(17),14(18),15-trien-12-yl)ureido]hexanoic acid] | 6 nM | – |
| CC[C@H]1COCCCCOc2ccc(cc2)C[C@@H](NC(=O)N[C@@H](CCCCN)C(=O)O)C(=O)N1 [Example 1-7, (S)-6-Amino-2-[3-((9S,12R)-9-ethyl-11-oxo-2,7-dioxa-10-azabicyclo[12.2.2]octadeca-1(17),14(18),15-trien-12-yl)ureido]hexanoic acid] | 49 nM | – |
| NCCCC[C@H](NC(=O)N[C@@H]1Cc2ccc(cc2)OCCCCOC[C@H](C2CCCCC2)NC1=O)C(=O)O [Example 1-6, (S)-6-Amino-2-[3-((9S,12R)-9-cyclohexyl-11-oxo-2,7-dioxa-10-azabicyclo[12.2.2]octadeca-1(17),14(18),15-trien-12-yl)ureido]hexanoic acid] | 811 nM | – |

The next lines start with results.

| IC50 (TAFIa) | SMILES | other results |
| --- | --- | --- |
| 59 nM | CC(C)[C@H]1COCC(O)C(O)COc2ccc(cc2)C[C@@H](NC(=O)NC(Cc2ccc(N)nc2)C(=O)O)C(=O)N1 (stereo partly drawn) [Example 8-3, 3-(6-Aminopyridin-3-yl)-2-[3-((9S,12R)-4,5-dihydroxy-9-isopropyl-11-oxo-2,7-dioxa-10-azabicyclo[12.2.2]octadeca-1(17),14(18), 15-trien-12-yl)ureido]propionic acid] | – |
| 40 nM | CC(C)[C@H]1COCCNC(=O)c2ccc(cc2)C[C@@H](NC(=O)N[C@@H](Cc2ccc(N)nc2)C(=O)O)C(=O)N1 [Example 7-4, (S)-3-(6-Aminopyridin-3-yl)-2-[3-((8S,11R)-8-isopropyl-2,10-dioxo-6-oxa-3,9-diazabicyclo[11.2.2]heptadeca-1(16),13(17), 14-trien-11-yl)ureido]propionic acid] | – |
| 21 nM | CC(C)[C@H]1COCCCCc2ccc(cc2)C[C@@H](NC(=O)N[C@@H](Cc2ccc(N)nc2)C(=O)O)C(=O)N1 [Example 6-2, (S)-3-(6-Aminopyridin-3-yl)-2-[3-((3R,6S)-6-isopropyl-4-oxo-8-oxa-5-azabicyclo[11.2.2]heptadeca-1(16),13(17), 14-trien-3-yl)ureido]propionic acid] | – |
| 52 nM | CC(C)[C@H]1COCCCCn2cnc(c2)C[C@@H](NC(=O)N[C@@H](Cc2ccc(N)nc2)C(=O)O)C(=O)N1 [Example 6-1, (S)-3-(6-Aminopyridin-3-yl)-2-[3-((8S,11R)-8-isopropyl-10-oxo-6-oxa-1,9,14-triazabicyclo[11.2.1]hexadeca-13(16),14-dien-11-yl)ureido]propionic acid] | – |
| 12 nM | CC(C)[C@H]1COCCCCOc2ccc(cc2F)C[C@@H](NC(=O)N[C@@H](Cc2ccc(N)nc2)C(=O)O)C(=O)N1 [Example 6-3, (S)-3-(6-Aminopyridin-3-yl)-2-[3-((9S,12R)-16-fluoro-9-isopropyl-11-oxo-2,7-dioxa-10-azabicyclo[12.2.2]octadeca-1(17),14(18), 15-trien-12-yl)ureido]propionic acid] | – |
| 22 nM | CC(C)[C@H]1COCCC(=O)Nc2ccc(cc2)C[C@@H](NC(=O)N[C@@H](CCCCN)C(=O)O)C(=O)N1 [Example 7-1, (S)-6-Amino-2-[3-((8S,11R)-8-isopropyl-3,10-dioxo-6-oxa-2,9-diazabicyclo[11.2.2]heptadeca-1(16),13(17),14-trien-11-yl)ureido]hexanoic acid] | – |
| 23 nM | CC(C)[C@H]1COCC(O)C(O)COc2ccc(cc2)C[C@@H](NC(=O)N[C@@H](CCCCN)C(=O)O)C(=O)N1 (stereo partly drawn) [Example 8-1, (S)-6-Amino-2-[3-((9S,12R)-4,5-dihydroxy-9-isopropyl-11-oxo-2,7-dioxa-10-azabicyclo[12.2.2]octadeca-1(17),14(18),15-trien-12-yl)ureido]hexanoic acid] | – |
| 55 nM | CC(C)[C@H]1COCCCCOC[C@@H](NC(=O)N[C@@H](Cc2ccc(N)nc2)C(=O)O)C(=O)N1 [Example 6-4, (S)-3-(6-Aminopyridin-3-yl)-2-[3-((3S,6R)-3-isopropyl-5-oxo-1,8-dioxa-4-azacyclododec-6-yl)ureido]propionic acid] | – |
| 17 nM | CC(C)[C@H]1COCCCCCCCC[C@@H](NC(=O)N[C@@H](CCCCN)C(=O)O)C(=O)N1 [Example 4-1, (S)-6-Amino-2-[3-((3S,6R)-3-isopropyl-5-oxo-1-oxa-4-azacyclotetradec-6-yl)ureido]hexanoic acid] | – |
| 9 nM | CC(C)[C@H]1COCCCCOc2ccc(cc2)C[C@@H](NC(=O)N[C@@H](Cc2ccc(N)nc2)C(=O)O)C(=O)N1 [Example 5-2, (S)-3-(6-Aminopyridin-3-yl)-2-[3-((9S,12R)-9-isopropyl-11-oxo-2,7-dioxa-10-azabicyclo[12.2.2]octadeca-1(17),14(18), 15-trien-12-yl)ureido]propionic acid] | – |
| 649 nM | CC(C)[C@H]1COCCCCOc2ccc(cc2)C[C@@H](NC(=O)N[C@@H](CS(=O)(=O)CCN)C(=O)O)C(=O)N1 [Example 5-1, (R)-3-(2-Aminoethanesulfonyl)-2-[3-((9S,12R)-9-isopropyl-11-oxo-2,7-dioxa-10-azabicyclo[12.2.2]octadeca-1(17),14(18), 15-trien-12-yl)ureido]propionic acid] | – |
| 32 nM | Nc1ccc(C[C@H](NC(=O)N[C@@H]2Cc3ccc(cc3)OCCCCOC[C@H](C3CC3)NC2=O)C(=O)O)cn1 [Example 5-3, (S)-3-(6-Aminopyridin-3-yl)-2-[3-((9S,12R)-9-cyclopropyl-11-oxo-2,7-dioxa-10-azabicyclo[12.2.2]octadeca-1(17),14(18), 15-trien-12-yl)ureido]propionic acid] | – |
